Read-outs that look alike come from different tables or passages of the source.
Legend:
[1] = target: AEA-DA lipid probe targets in Neuro2a cells (Mus musculus, UniProt P18242)
[2] = target: T1, AEA-DA lipid probe targets in Neuro2a cells (Mus musculus, UniProt Q9CY50)
T1 sequence (Q9CY50 22-286): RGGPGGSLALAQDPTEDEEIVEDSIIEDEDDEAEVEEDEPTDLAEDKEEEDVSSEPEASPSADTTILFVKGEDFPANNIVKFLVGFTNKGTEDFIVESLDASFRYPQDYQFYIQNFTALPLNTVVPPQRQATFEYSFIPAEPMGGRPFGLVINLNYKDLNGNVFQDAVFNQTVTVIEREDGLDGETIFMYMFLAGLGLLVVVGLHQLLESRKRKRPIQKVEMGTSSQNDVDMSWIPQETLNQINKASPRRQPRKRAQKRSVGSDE

[3] = target: T2, AEA-DA lipid probe targets in Neuro2a cells (Mus musculus, UniProt Q91ZV0)
T2 sequence (Q91ZV0 23-1396): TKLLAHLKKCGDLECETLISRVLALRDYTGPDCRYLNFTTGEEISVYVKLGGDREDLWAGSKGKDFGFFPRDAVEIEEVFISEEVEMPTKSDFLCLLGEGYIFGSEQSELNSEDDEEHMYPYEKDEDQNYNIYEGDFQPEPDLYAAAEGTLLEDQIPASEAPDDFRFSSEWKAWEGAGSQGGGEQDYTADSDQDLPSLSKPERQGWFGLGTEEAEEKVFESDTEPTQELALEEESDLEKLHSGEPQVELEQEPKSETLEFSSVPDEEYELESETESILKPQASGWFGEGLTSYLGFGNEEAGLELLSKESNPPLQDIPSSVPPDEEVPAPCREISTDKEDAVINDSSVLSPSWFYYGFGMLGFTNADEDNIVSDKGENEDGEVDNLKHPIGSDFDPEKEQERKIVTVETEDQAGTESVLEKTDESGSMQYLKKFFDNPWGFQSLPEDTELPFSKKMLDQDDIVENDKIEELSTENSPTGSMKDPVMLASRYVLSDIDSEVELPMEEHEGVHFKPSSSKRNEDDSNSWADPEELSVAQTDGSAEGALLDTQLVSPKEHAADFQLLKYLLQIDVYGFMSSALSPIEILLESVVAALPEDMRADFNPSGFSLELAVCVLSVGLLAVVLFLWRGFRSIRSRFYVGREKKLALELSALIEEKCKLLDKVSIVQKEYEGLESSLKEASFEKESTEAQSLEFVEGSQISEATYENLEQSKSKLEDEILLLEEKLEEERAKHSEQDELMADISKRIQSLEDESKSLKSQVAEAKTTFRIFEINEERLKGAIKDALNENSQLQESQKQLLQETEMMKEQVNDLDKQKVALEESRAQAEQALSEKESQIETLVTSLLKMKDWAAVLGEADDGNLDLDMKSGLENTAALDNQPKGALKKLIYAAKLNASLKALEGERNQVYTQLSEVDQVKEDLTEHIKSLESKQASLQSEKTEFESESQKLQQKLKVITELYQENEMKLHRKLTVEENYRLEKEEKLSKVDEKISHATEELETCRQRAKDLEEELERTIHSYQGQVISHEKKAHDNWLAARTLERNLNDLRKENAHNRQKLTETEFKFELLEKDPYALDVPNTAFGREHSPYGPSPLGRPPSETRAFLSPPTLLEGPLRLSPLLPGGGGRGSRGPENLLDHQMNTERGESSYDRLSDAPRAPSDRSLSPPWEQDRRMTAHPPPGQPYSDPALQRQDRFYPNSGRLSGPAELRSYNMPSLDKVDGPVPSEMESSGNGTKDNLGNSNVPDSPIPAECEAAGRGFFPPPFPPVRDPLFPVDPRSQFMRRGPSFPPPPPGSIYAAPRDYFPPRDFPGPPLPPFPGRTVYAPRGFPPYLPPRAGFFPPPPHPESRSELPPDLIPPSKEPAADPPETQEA

[4] = target: T3, AEA-DA lipid probe targets in Neuro2a cells (Mus musculus, UniProt Q61335)
T3 sequence (Q61335 1-245): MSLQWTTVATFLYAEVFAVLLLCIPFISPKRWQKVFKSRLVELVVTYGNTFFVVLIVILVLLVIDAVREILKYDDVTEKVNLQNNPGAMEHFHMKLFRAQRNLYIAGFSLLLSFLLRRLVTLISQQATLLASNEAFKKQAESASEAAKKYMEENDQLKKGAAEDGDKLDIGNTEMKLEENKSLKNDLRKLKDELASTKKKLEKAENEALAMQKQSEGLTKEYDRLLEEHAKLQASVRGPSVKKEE

[5] = target: T4, AEA-DA lipid probe targets in Neuro2a cells (Mus musculus, UniProt Q61009)
T4 sequence (Q61009 1-509): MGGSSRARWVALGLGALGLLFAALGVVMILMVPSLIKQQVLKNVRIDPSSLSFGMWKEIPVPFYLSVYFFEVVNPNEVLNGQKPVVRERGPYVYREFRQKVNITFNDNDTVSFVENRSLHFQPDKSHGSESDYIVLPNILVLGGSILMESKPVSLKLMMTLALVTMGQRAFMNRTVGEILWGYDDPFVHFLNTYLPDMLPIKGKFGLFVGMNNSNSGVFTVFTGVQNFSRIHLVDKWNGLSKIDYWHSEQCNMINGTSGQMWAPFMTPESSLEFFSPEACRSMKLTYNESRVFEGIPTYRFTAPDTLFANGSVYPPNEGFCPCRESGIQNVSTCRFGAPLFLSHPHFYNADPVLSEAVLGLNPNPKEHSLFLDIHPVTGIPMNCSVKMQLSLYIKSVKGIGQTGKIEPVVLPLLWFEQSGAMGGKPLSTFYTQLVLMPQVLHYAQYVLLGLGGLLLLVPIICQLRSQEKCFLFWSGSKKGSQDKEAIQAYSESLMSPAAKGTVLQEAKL

[6] = target: T5, AEA-DA lipid probe targets in Neuro2a cells (Mus musculus, UniProt Q8VD00)
T5 sequence (Q8VD00 1-176): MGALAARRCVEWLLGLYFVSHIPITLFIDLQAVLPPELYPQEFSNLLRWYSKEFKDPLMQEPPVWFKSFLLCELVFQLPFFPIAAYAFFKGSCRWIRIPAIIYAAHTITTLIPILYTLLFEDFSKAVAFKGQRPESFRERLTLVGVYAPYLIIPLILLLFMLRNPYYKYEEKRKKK

[7] = target: AEA-DA lipid probe targets in Neuro2a cells (Mus musculus, UniProt Q91VE6)
Sequence of AEA-DA lipid probe targets in Neuro2a cells (Mus musculus, UniProt Q91VE6) (Q91VE6 whole entry): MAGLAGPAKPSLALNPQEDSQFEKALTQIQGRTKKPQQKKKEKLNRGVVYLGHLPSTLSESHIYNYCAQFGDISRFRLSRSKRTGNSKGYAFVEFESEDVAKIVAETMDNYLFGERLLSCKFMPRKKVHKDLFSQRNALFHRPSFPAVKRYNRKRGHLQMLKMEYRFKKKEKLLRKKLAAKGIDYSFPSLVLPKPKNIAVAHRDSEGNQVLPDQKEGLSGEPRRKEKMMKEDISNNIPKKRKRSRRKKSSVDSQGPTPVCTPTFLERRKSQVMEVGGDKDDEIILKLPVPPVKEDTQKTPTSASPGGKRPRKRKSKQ

Sequence of AEA-DA lipid probe targets in Neuro2a cells (Mus musculus, UniProt P18242) (P18242 65-410): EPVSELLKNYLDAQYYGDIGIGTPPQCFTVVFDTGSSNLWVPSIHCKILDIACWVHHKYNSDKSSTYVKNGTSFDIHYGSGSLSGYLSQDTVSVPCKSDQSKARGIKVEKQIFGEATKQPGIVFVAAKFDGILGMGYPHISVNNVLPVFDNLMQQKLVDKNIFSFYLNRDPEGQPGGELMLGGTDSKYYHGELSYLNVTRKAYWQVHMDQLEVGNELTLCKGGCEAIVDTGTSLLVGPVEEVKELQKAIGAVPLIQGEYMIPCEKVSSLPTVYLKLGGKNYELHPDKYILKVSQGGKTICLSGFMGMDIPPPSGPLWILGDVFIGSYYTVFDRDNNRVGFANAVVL

## O=C(/C=C/c1cccnc1)NCCCCC1CCN(C(=O)c2ccccc2)CC1 [FK-866, reference compound]
[1]; competitor 25 μM
  SILAC ratio, Ctsd: 1.0
[2]; competitor 25 μM
  SILAC ratio, Ssr1: 1.3
[3]; competitor 25 μM
  SILAC ratio, Ctage5: 1.1
[4]; competitor 25 μM
  SILAC ratio, Bcap31: 1.6
[5]; competitor 25 μM
  SILAC ratio, Scarb1: 2.3
[6]; competitor 25 μM
  SILAC ratio, Tmem97: 1.0
[7]; competitor 25 μM
  SILAC ratio Mki67ip: 1.0

## CCCCC/C=C\C/C=C\C/C=C\C/C=C\CCCC(=O)NCCO [AEA, anandamide, reference compound]
[1]; competitor 200 μM
  SILAC ratio, Ctsd: 1.2
[2]; competitor 200 μM
  SILAC ratio, Ssr1: 1.9
[3]; competitor 200 μM
  SILAC ratio, Ctage5: 2.3
[4]; competitor 200 μM
  SILAC ratio, Bcap31: 2.3
[5]; competitor 200 μM
  SILAC ratio, Scarb1: 1.6
[6]; competitor 200 μM
  SILAC ratio, Tmem97: 1.8
[7]; competitor 200 μM
  SILAC ratio Mki67ip: 1.4

## CN1CCN(C(=O)c2c(-c3ccccc3)c3cc([N+](=O)[O-])ccc3n2C)CC1 [KML110, (1-Methyl-5-nitro-3-phenyl-1H-indol-2-yl)(4-methylpiperazin-1-yl)methanone]
[1]; competitor 25 μM
  SILAC ratio, Ctsd: 1.4
[2]; competitor 25 μM
  SILAC ratio, Ssr1: 1.7
[3]; competitor 25 μM
  SILAC ratio, Ctage5: 1.4
[4]; competitor 25 μM
  SILAC ratio, Bcap31: 2.0
[5]; competitor 25 μM
  SILAC ratio, Scarb1: 2.8
[6]; competitor 25 μM
  SILAC ratio, Tmem97: 1.6
[7]; competitor 25 μM
  SILAC ratio Mki67ip: 1.5

## C=CCN(C)CCCCCCOc1ccc(C(=O)c2ccc(Br)cc2)c(F)c1 [Ro 48-8071, reference compound]
[1]; competitor 25 μM
  SILAC ratio, Ctsd: 0.5
[2]; competitor 25 μM
  SILAC ratio, Ssr1: 1.3
[3]; competitor 25 μM
  SILAC ratio, Ctage5: 1.0
[4]; competitor 25 μM
  SILAC ratio, Bcap31: 1.4
[5]; competitor 25 μM
  SILAC ratio, Scarb1: 2.9
[6]; competitor 25 μM
  SILAC ratio, Tmem97: 10.0
[7]; competitor 25 μM
  SILAC ratio Mki67ip: 1.0

## CN1CCN(C(=O)c2[nH]c3ccc([N+](=O)[O-])cc3c2-c2ccccc2)CC1 [MJN228, (4-Methylpiperazin-1-yl)(5-nitro-3-phenyl-1H-indol-2-yl)methanone]
[1]; competitor 10 μM
  SILAC ratio, Ctsd: 1.2
[1]; competitor 25 μM
  SILAC ratio, Ctsd: 1.2
[1]; competitor 50 μM
  SILAC ratio, Ctsd: 1.2
[1]; competitor 100 μM
  SILAC ratio, Ctsd: 1.1
[2]; competitor 10 μM
  SILAC ratio, Ssr1: 1.3
[2]; competitor 25 μM
  SILAC ratio, Ssr1: 1.7
[2]; competitor 50 μM
  SILAC ratio, Ssr1: 1.8
[2]; competitor 100 μM
  SILAC ratio, Ssr1: 3.0
[3]; competitor 10 μM
  SILAC ratio, Ctage5: 1.1
[3]; competitor 25 μM
  SILAC ratio, Ctage5: 1.3
[3]; competitor 50 μM
  SILAC ratio, Ctage5: 1.5
[3]; competitor 100 μM
  SILAC ratio, Ctage5: 1.7
[4]; competitor 10 μM
  SILAC ratio, Bcap31: 2.1
[4]; competitor 25 μM
  SILAC ratio, Bcap31: 2.5
[4]; competitor 50 μM
  SILAC ratio, Bcap31: 3.8
[4]; competitor 100 μM
  SILAC ratio, Bcap31: 4.0
[5]; competitor 10 μM
  SILAC ratio, Scarb1: 1.6
[5]; competitor 25 μM
  SILAC ratio, Scarb1: 2.0
[5]; competitor 50 μM
  SILAC ratio, Scarb1: 3.2
[5]; competitor 100 μM
  SILAC ratio, Scarb1: 4.9
[6]; competitor 10 μM
  SILAC ratio, Tmem97: 1.4
[6]; competitor 25 μM
  SILAC ratio, Tmem97: 1.7
[6]; competitor 50 μM
  SILAC ratio, Tmem97: 2.1
[6]; competitor 100 μM
  SILAC ratio, Tmem97: 3.2
[7]; competitor 10 μM
  SILAC ratio Mki67ip: 1.2
[7]; competitor 25 μM
  SILAC ratio Mki67ip: 1.5
[7]; competitor 50 μM
  SILAC ratio Mki67ip: 1.8
[7]; competitor 100 μM
  SILAC ratio Mki67ip: 2.3

— US10168342B2, “Lipid probes and uses thereof” (THE SCRIPPS RESEARCH INSTITUTE, priority 2015, dated 2019)
